± gives the expanded uncertainty stated by the source.
Test: activity coefficient (dimensionless); of the first substance listed, at infinite dilution; xn = mol fraction of the nth substance listed
Conditions: 101.3 kPa, Liquid, Differential ebulliometry, x1 = 0

Compound | activity coefficient (353.15 K) | activity coefficient (373.15 K) | activity coefficient (393.15 K) | activity coefficient (333.15 K) | activity coefficient (348.15 K)
NC1CCCCC1 [cyclohexylamine] + CC1CCCCC1 | 1.87 ± 0.22 | 1.64 ± 0.2 | 1.48 ± 0.18 |  | 
C1CCCCC1 [cyclohexane] + NC1CCCCC1 |  | 1.24 ± 0.15 | 1.18 ± 0.14 |  | 
NC1CCCCC1 [cyclohexylamine] + C1CCCCC1 |  |  |  | 1.77 ± 0.21 | 1.49 ± 0.18
CC1CCCCC1 [methylcyclohexane] + NC1CCCCC1 | 1.26 ± 0.15 | 1.25 ± 0.15 |  | 1.19 ± 0.14 | 
CCC1CCCCC1 [ethylcyclohexane] + NC1CCCCC1 | 1.57 ± 0.19 | 1.45 ± 0.17 | 1.42 ± 0.17 |  | 
NC1CCCCC1 [cyclohexylamine] + CCC1CCCCC1 | 1.52 ± 0.18 | 1.45 ± 0.17 | 1.36 ± 0.16 |  | 

From the NIST ThermoML archive (doi:10.1016/j.fluid.2011.09.010)
